Reference: the supplement of paper PMC10307832

How the values were obtained:
Test in all cases: relative viability (nuclei count vs DMSO), 5 days (fraction); higher = more cells survive
[1] = compound: C1COCCN1C2=NC(=NC3=C2OC4=C3C=CC=N4)C5=CC(=CC=C5)NC(=O)C6=CN=C(C=C6)N + Cc1cc(Nc2cc(N3CCN(C)CC3)nc(Sc3ccc(NC(=O)C4CC4)cc3)n2)n[nH]1 [Tozasertib] (partner 0.1 µM)
Method in brief: (§1)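 Cells from lung cancer lines were seeded into 1536-well plates and, one day later, dosed by pin tool. Treatments were either a single drug or a fixed dose of an anchor drug with five library-drug doses (not always all listed) in √10 steps. After 5 days, nuclei were stained in a one-step fixation (final 0.05% Triton X-100, 1% formaldehyde, 1 ug/ml Hoechst) and counted on 4× images, and relative viability is the treated-to-vehicle nuclei ratio, as the median of duplicate plates.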

SGI-1776 + OSI-027 = compound: CN1CCC(CNc2ccc3ncc(-c4cccc(OC(F)(F)F)c4)n3n2)CC1 [SGI-1776] + COc1cccc2cc(-c3nc([C@H]4CC[C@H](C(=O)O)CC4)n4ncnc(N)c34)[nH]c12 [OSI-027] (partner 0.5 µM)
Method in brief: as §1

Entinostat + Pictilisib = compound: Nc1ccccc1NC(=O)c1ccc(CNC(=O)OCc2cccnc2)cc1 [Entinostat] + CS(=O)(=O)N1CCN(Cc2cc3nc(-c4cccc5[nH]ncc45)nc(N4CCOCC4)c3s2)CC1 [Pictilisib] (partner 1 µM)
Method in brief: as §1

Entinostat + Vorinostat = compound: Nc1ccccc1NC(=O)c1ccc(CNC(=O)OCc2cccnc2)cc1 [Entinostat] + O=C(CCCCCCC(=O)Nc1ccccc1)NO [Vorinostat] (partner 1 µM)
Method in brief: as §1

Cell Line	relative viability ([1]; first compound 0.02 µM)	relative viability ([1]; first compound 0.06325 µM)	relative viability ([1]; first compound 0.2 µM)	relative viability ([1]; first compound 0.6325 µM)	relative viability ([1]; first compound 2 µM)	relative viability (SGI-1776 + OSI-027; first compound 0.08 µM)	relative viability (SGI-1776 + OSI-027; first compound 0.8 µM)	relative viability (SGI-1776 + OSI-027; first compound 2.53 µM)	relative viability (SGI-1776 + OSI-027; first compound 8 µM)	relative viability (Entinostat + Pictilisib; first compound 0.02 µM)	relative viability (Entinostat + Pictilisib; first compound 0.06325 µM)	relative viability (Entinostat + Pictilisib; first compound 0.2 µM)	relative viability (Entinostat + Pictilisib; first compound 0.6325 µM)	relative viability (Entinostat + Pictilisib; first compound 2 µM)	relative viability (Entinostat + Vorinostat; first compound 0.02 µM)	relative viability (Entinostat + Vorinostat; first compound 0.06325 µM)	relative viability (Entinostat + Vorinostat; first compound 0.2 µM)	relative viability (Entinostat + Vorinostat; first compound 0.6325 µM)	relative viability (Entinostat + Vorinostat; first compound 2 µM)
NCI-H1915	0.439	0.492	0.392	0.408	0.264	0.642	0.645	0.618	0.49	0.899	0.94	0.844	0.328	0.218	0.488	0.499	0.481	0.356	0.152
NCI-H1944	0.259	0.263	0.228	0.209	0.173	0.436	0.428	0.344	0.342	0.332	0.398	0.336	0.268	0.25	0.59	0.576	0.452	0.307	0.246
NCI-H1975	0.893	0.699	0.315	0.225	0.215	0.72	0.688	0.525	0.428	0.206	0.245	0.228	0.151	0.139	0.692	0.651	0.509	0.347	0.211
NCI-H1993	0.551	0.569	0.524	0.567	0.538	0.549	0.52	0.551	0.525	0.878	0.876	0.916	0.888	0.833	0.841	0.661	0.73	0.453	0.351
NCI-H2009	0.8	0.749	0.726	0.655	0.433	0.653	0.636	0.591	0.282	0.811	0.941	0.882	0.73	0.546	0.664	0.72	0.762	0.581	0.416
NCI-H2023	0.371	0.369	0.158	0.142	0.13	0.415	0.388	0.319	0.167	0.173	0.182	0.146	0.126	0.0933	0.541	0.536	0.318	0.118	0.0713
NCI-H2085	0.667	0.826	0.691	0.456	0.463	0.745	0.828	0.853	0.44	0.477	0.388	0.378	0.382	0.403	0.731	0.763	0.788	0.608	0.419
NCI-H2087	0.249	0.265	0.202	0.258	0.209	0.704	0.693	0.566	0.496	0.741	0.822	0.826	0.353	0.315	1.07	0.407	0.697	0.451	0.157
NCI-H2126	0.868	0.895	0.767	0.702	0.518	0.708	0.813	0.693	0.659	0.44	0.545	0.47	0.301	0.298	0.74	0.883	0.733	0.314	0.317
